From US12383524B2, “Therapeutic compositions of undecylenic acid and arginine” (Wintermute Biomedical, Inc., priority 2018, dated 2025)

Experiments:
[1] = test system: methicillin-resistant Staphylococcus aureus (MRSA); assay: In vitro bactericidal assay against MRSA isolates (viable CFU/mL after treatment); details: average of three MRSA isolates, 24 hours, varying CA concentration
Method: Note that efficacy is reported in terms of the viable bacterial concentration (in CFU/mL) remaining after 24 hours of treatment with the drug product (in compliance with CLSI guidelines).
In this example, bacteria (MRSA isolates) are put onto fresh plates and allowed to grow for 30 hours. A suspension inoculum is made from the plates (e.g., a 1 McFarland solution in sterile water), from which the turbidity may be optically read. A standard inoculum may then be cultured in media and 100 μL of that solution combined with 100 μL of drug product and grown at various dilutions for 16-20 hrs. Duplicates may then be examined (e.g., following pelleting at 7,000 RPM for 15 min, resuspended in PBS and serial dilutions plated and grown for 24 hrs.). Duplicate plates at multiple dilutions may then be imaged and colonies counted.
For example, in each of these examples in FIG. 20, the fatty acid to amino acid in the compositions was at a ratio of about 1:0.76 (fatty acid:amino acid) by weight when diluted and used to treat MRSA. GS-1, GS-2 and GS-3 all had fatty acid:amino acid aqueous mixtures with approximately 32% w/w of total active pharmaceutical ingredients (APIs), which were diluted at 1:128 in water, resulting in a concentration of about 0.25% w/w total APIs. […]

bacteria = assay: Variation of the amino acid combined with UCA, bactericidal effect; type: cell-based
Excerpt: Thus in some variations, the amino acid may be limited to a charged (and particularly the positively charged) amino acids, such as amino acid having an electrically charged basic side chain.

SMILES | effect of CA on efficacy of the UCA and LARG composition [1] | bactericidal effect when used as the amino acid with the fatty acid (bacteria)
CCCCCCCCCCCCCCCCO [CA, cetyl alcohol] | clear inhibitory effect | –
N=C(N)NCCC[C@@H](N)C(=O)O [D-Arginine] | – | ineffective
